Data reported in article PMC10349806 (Nature Communications, 2023).
“And” between values parts separate entries of the source, which are not always exact repeats. Equal entries are not always repeated.

Legend:
PfCRT variant H97A = target: T1, PfCRT variant H97A (Plasmodium falciparum, UniProt Q9N623, A220S/H97A/I356T/K76T/M74I/N326S/N75E/Q271E/R371I); test: CQ uptake assay, oocytes expressing H97A; type: cell-based
T1 sequence (Q9N623 1-424 M74I/N75E/K76T/H97A/A220S/Q271E/N326S/I356T/R371I): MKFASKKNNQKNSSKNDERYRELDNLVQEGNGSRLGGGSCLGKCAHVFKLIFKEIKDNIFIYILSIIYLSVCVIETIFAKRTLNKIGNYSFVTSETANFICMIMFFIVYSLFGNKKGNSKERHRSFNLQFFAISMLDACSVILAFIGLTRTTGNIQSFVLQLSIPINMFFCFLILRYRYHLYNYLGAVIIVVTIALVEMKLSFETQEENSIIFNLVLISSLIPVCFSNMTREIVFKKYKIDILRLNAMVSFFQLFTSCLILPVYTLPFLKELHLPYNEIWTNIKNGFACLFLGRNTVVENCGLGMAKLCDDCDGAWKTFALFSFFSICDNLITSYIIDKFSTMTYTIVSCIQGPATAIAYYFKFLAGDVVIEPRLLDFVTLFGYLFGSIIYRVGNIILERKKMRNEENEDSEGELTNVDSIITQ
Protocol: (§1) Site-directed mutagenesis of PfCRT^Dd2 was performed as described using the megaprimer method with overlap extension[21],[54]. The primer pairs used are listed in Supplementary Table 6. Please note that a codon-optimized and oocyte-adapted version of PfCRT^Dd2 was used[22] (Supplementary Fig. 16). The resulting DNA fragment was cloned into the SP64T expression vector and verified by sequencing.
(§2) Oocytes were obtained as described previously. Briefly, adult (>2 years old) female X. laevis frogs (NASCO) were anesthetized in a cooled solution of ethyl 3-amino benzoate methanesulfonate (0.1%, w/v), followed by a surgical removal of parts of the ovary. The ovary lobes were carefully dissected and small pieces of oocytes were incubated in Ca^2+-free ND96 buffer (96 mM NaCl, 2 mM KCl, 1 mM MgCl2 buffered with 5 mM HEPES/NaOH, pH 7.5) supplemented with collagenase D (0.1%, w/v; Roche), BSA (0.5%, w/v), and 9 mm Na2HPO4 at 18 °C for 14-16 h while gentle shaking. After incubation, the oocytes were carefully washed several times with ND96 buffer (96 mM NaCl, 2 mM KCl, 1.8 mM CaCl2, 1 mM MgCl2 buffered with 5 mM HEPES/NaOH, pH 7.5) supplemented with 100 mg l^−1 gentamycin). Defolliculated and healthy-looking stage V-VI oocytes were manually selected for RNA microinjection. The RNA was generated as following: The codon-optimized sequences of PfCRT variants were cloned into the pSP64T expression vector. After vector linearization using the restriction endonucleases BamHI or SalI (New England Biolabs), transcription was performed using the in vitro SP6 mMessage mMachine Kit (Ambion)[34]. The obtained RNA was kept at −80 °C and diluted with nuclease-free water to a concentration of 0.6 μg μl^−1. Precision-bore glass capillary tubes (3.5-inch glass capillaries; Drummond Scientific Co.) were pulled on a vertical puller (P-87 Flaming/Brown micropipette puller, Sutter Instrument Co.), graduated, and placed on a microinjector (Nanoject II Auto-Nanoliter Injector, Drummond Scientific Co.). 50 nl of nuclease-free water alone (control oocytes) or 50 nl of 0.6 μg μl^−1 RNA were injected under stereomicroscopic control. Injected oocytes were incubated for 46–72 h at 18 °C with twice-daily buffer changes before usage in experiments.
Drug uptake assays were performed as described previously[21],[22],[24],[34]. […] Oocytes that were injected with water instead of RNA were analyzed in parallel, representing the uptake of a drug by diffusion and/or endogenous permeation pathways. […] The specific PfCRT-mediated uptake was determined by subtracting the corresponding background value measured in water-injected oocytes from that of PfCRT-expressing oocytes. […]

PfCRT variant E207Y = test: CQ uptake assay, oocytes expressing E207Y; type: cell-based, Plasmodium falciparum
Protocol: as §1, §2
Drug uptake assays were performed as described previously[21],[22],[24],[34]. […] The direction of radio-labeled drug transport is here from the mostly acidic extracellular solution (pH 4.5 or 6.0, as indicated) into the oocyte cytosol (pH ∼ 7.2), which corresponds to the efflux of drug from the acidic digestive vacuole (pH 5.2) into the parasite cytoplasm (pH 7.2). The topology of PfCRT in the oolemma is such that both the N- and C-terminus face the extracellular milieu[3],[22]. In the parasite, the N- and C-terminus face the lumen of the digestive vacuole. CQ uptake kinetics were performed by incubating oocytes in ND96 buffer adjusted to a pH of 4.5, 5.0, 5.5, or 6.0 and supplemented with 50 nM [^3H]CQ and one of 7 different CQ concentrations (10 µM, 50 µM, 100 µM, 200 µM, 300 µM, 400 µM, 500 µM CQ). The reaction was stopped at the 60 min time point, which is in the linear uptake range[22],[34] (Supplementary Fig. 17). For determination of the amount of drug uptake for each oocyte, the reaction medium was removed and the oocytes were washed three times with 2 ml of ice-cold ND96 buffer. Each oocyte was individually transferred to a scintillation vial containing 5% sodium dodecyl sulfate (200 μl) for lysis. The radioactivity of each sample was measured using a liquid scintillation analyzer Tri-Carb 4910 TR (PerkinElmer). Oocytes that were injected with water instead of RNA were analyzed in parallel, representing the uptake of a drug by diffusion and/or endogenous permeation pathways. The resulting value represents the “background“ level of drug accumulation in oocytes (in-depth discussion in[22]). […]

[1] = E207Y, 50 µM CQ, 1 h, mean ± SEM

**Q.** `CCN(CC)CCCC(C)Nc1ccnc2cc(Cl)ccc12` (stereo not shown) [CQ, chloroquine] was tested. Which “Activity at pH 6.0” value (PfCRT variant H97A; H97A, 50 µM CQ, 1 h, mean ± SEM) did it give?
**A.** 6.57 ± 0.71 pmol h-1 oocyte-1

**Q.** What about the R-value (PfCRT variant H97A; H97A, CQ transport at pH 4.5 / pH 6.0) of the same compound?
**A.** 0.40 and 0.40 ± 0.04

**Q.** And the “H97A transport activity pH 4.5” value (PfCRT variant H97A; pH 4.5, single replicates, Fig 1d left)?
**A.** 3.71 pmol oocyte-1 h-1 and 4.69 pmol oocyte-1 h-1 and 2.51 pmol oocyte-1 h-1 and 3.21 pmol oocyte-1 h-1 and 2.32 pmol oocyte-1 h-1 and 1.49 pmol oocyte-1 h-1 and 2.15 pmol oocyte-1 h-1 and 1.58 pmol oocyte-1 h-1

**Q.** And the “H97A transport activity pH 6.0” value (PfCRT variant H97A; pH 6.0, single replicates, Fig 1d left)?
**A.** 9.31 pmol oocyte-1 h-1 and 6.25 pmol oocyte-1 h-1 and 4.00 pmol oocyte-1 h-1 and 9.52 pmol oocyte-1 h-1 and 5.42 pmol oocyte-1 h-1 and 3.89 pmol oocyte-1 h-1 and 6.61 pmol oocyte-1 h-1 and 7.56 pmol oocyte-1 h-1

**Q.** And the “Activity at pH 4.5” value (PfCRT variant E207Y; [1])?
**A.** 1.70 ± 0.21 pmol h-1 oocyte-1

**Q.** What about the “Activity at pH 6.0” value (PfCRT variant E207Y; [1]) of the same compound?
**A.** 1.84 ± 0.21 pmol h-1 oocyte-1

**Q.** And the R-value (PfCRT variant E207Y; E207Y, CQ transport at pH 4.5 / pH 6.0)?
**A.** 0.92 ± 0.06

**Q.** And the “E207Y transport activity pH 4.5” value (PfCRT variant E207Y; pH 4.5, individual replicates, Fig 6b)?
**A.** 2.50 pmol oocyte-1 h-1 and 1.56 pmol oocyte-1 h-1 and 1.84 pmol oocyte-1 h-1 and 1.50 pmol oocyte-1 h-1 and 1.10 pmol oocyte-1 h-1

**Q.** What about the “E207Y transport activity pH 6.0” value (PfCRT variant E207Y; pH 6.0, individual replicates, Fig 6b) of the same compound?
**A.** 2.64 pmol oocyte-1 h-1 and 1.70 pmol oocyte-1 h-1 and 1.99 pmol oocyte-1 h-1 and 1.61 pmol oocyte-1 h-1 and 1.24 pmol oocyte-1 h-1

**Q.** What about the “E207Y R-value” (PfCRT variant E207Y; ratio of activity pH 4.5 / pH 6.0) of the same compound?
**A.** 0.95 and 0.92 and 0.93 and 0.89
